# Assay results published in patent US20100056627A1, “PHARMACEUTICAL COMPOSITIONS OF ALKYL GALLATES” (priority 2006, published 2010).
# “And” between values parts separate entries of the source, which are not always exact repeats. Equal values may be shown once. Read-outs that look alike come from different tables or passages of the source.
# Experiments:
# [1] = test system: influenza virus A/Aichi (H3N2); test: Virucidal activity against influenza virus A/Aichi (H3N2) (Table 16); details: for No of plaques: Table 16
# [2] = test system: clinical isolate MRSA; test: Oxacillin MIC against MRSA with concomitant octyl gallate and short-chain alkyl gallate (β-lactam sensitivity, ILSMR effect); assay type: cell-based, Staphylococcus aureus
# [3] = test system: influenza virus B/T/1/05; test: Time course of virucidal activity at 37° C., infectivity by plaque assay in MDCK cells (FIGS. 6 to 12); assay type: cell-based
# Method: The experiments in FIGS. 7 to 12 were carried out at 37° C. The infectivity of viruses was determined using MDCK cells by the plaque assay method.
# This virucidal activity of octyl gallate was reinforced by propyl gallate also against influenza virus A/Aichi (H3N2) in the same manner as above.
# [4] = test system: clinical isolates MRSA and MSSA; details: for Recrystalized octyl gallate MIC: sodium ascorbate 0.5 mg/ml; for Recrystalized octyl gallate MIC / MIC50 / MIC: 24 h; for MIC50 / MIC: Staphylococcus aureus, MRSA|MSSA; for MIC50: read-out: MIC50, 24 h MIC, MRSA, trisodium citrate medium
# [5] = clinical isolate MRSA, Isoamyl gallate 6.25
# [6] = clinical isolate MRSA, Isoamyl gallate 12.5
# [7] = clinical isolate MRSA, Isoamyl gallate 25
# [8] = clinical isolate MRSA, Propyl gallate 6.25
# [9] = clinical isolate MRSA, Propyl gallate 12.5
# [10] = clinical isolate MRSA, Propyl gallate 25
# [11] = clinical isolate MRSA, short-chain alkyl gallate None
compound,measurement,setting,value
CCCCCCCCOC(=O)c1cc(O)c(O)c(O)c1 [octyl gallate],No of plaques,"[1]; octyl gallate 20 mg/L, J1816 60 mg/L, NaCitrate 0.90%",0
same,No of plaques,"[1]; octyl gallate 20 mg/L, propyl gallate 300 mg/L, J1816 150 mg/L, NaCitrate 0.90%",0
same,No of plaques,"[1]; octyl gallate 40 mg/L, J1816 20 mg/L, NaCitrate 0.90%",0
same,No of plaques,"[1]; octyl gallate 40 mg/L, propyl gallate 300 mg/L, J1816 210 mg/L, NaCitrate 0.90%",0
same,No of plaques,"[1]; octyl gallate 60 mg/L, J1816 180 mg/L, NaCitrate 0.90%",0
same,No of plaques,"[1]; octyl gallate 60 mg/L, J1816 180 mg/L, NaCitrate not given",0
same,No of plaques,"[1]; octyl gallate 60 mg/L, propyl gallate 300 mg/L, J1816 270 mg/L, NaCitrate 0.90%",0
same,No of plaques,"[1]; octyl gallate 80 mg/L, J1816 240 mg/L, NaCitrate 0.90%",0
same,No of plaques,"[1]; octyl gallate 80 mg/L, propyl gallate 300 mg/L, J1816 330 mg/L, NaCitrate 0.90%",0
same,No of plaques,"[1]; octyl gallate 100 mg/L, J1816 300 mg/L, NaCitrate 0.90%",0
same,No of plaques,"[1]; octyl gallate 100 mg/L, propyl gallate 300 mg/L, J1816 390 mg/L, NaCitrate 0.90%",0
same,virucidal activity of octyl gallate against influenza virus A/Aichi (H3N2),[1]; with propyl gallate,reinforced
same,octyl gallate concentration with growth inhibitory effect in all the bacterial strains with only octyl gallate,[2]; clinical isolate MRSA,25 µg/mL
same,"Concentration of octyl gallate for concomitant use necessary for obtaining oxacillin MIC not higher than 2 μg/mL, C50",[2]; [5],>12.5 µg/mL
same,"Concentration of octyl gallate for concomitant use necessary for obtaining oxacillin MIC not higher than 2 μg/mL, C100",[2]; [5],>12.5 µg/mL
same,"Concentration of octyl gallate for concomitant use necessary for obtaining oxacillin MIC not higher than 2 μg/mL, C50",[2]; [6],>12.5 µg/mL
same,"Concentration of octyl gallate for concomitant use necessary for obtaining oxacillin MIC not higher than 2 μg/mL, C100",[2]; [6],>12.5 µg/mL
same,"Concentration of octyl gallate for concomitant use necessary for obtaining oxacillin MIC not higher than 2 μg/mL, C50",[2]; [7],1.56 µg/mL
same,"Concentration of octyl gallate for concomitant use necessary for obtaining oxacillin MIC not higher than 2 μg/mL, C100",[2]; [7],1.56 µg/mL
same,"Concentration of octyl gallate for concomitant use necessary for obtaining oxacillin MIC not higher than 2 μg/mL, Range",[2]; [7],1.56 µg/mL
same,"Concentration of octyl gallate for concomitant use necessary for obtaining oxacillin MIC not higher than 2 μg/mL, C50",[2]; [8],>12.5 µg/mL
same,"Concentration of octyl gallate for concomitant use necessary for obtaining oxacillin MIC not higher than 2 μg/mL, C100",[2]; [8],>12.5 µg/mL
same,"Concentration of octyl gallate for concomitant use necessary for obtaining oxacillin MIC not higher than 2 μg/mL, C50",[2]; [9],>12.5 µg/mL
same,"Concentration of octyl gallate for concomitant use necessary for obtaining oxacillin MIC not higher than 2 μg/mL, C100",[2]; [9],>12.5 µg/mL
same,"Concentration of octyl gallate for concomitant use necessary for obtaining oxacillin MIC not higher than 2 μg/mL, Range",[2]; [9],6.25 to 12.5 µg/mL
same,"Concentration of octyl gallate for concomitant use necessary for obtaining oxacillin MIC not higher than 2 μg/mL, C50",[2]; [10],3.13 µg/mL
same,"Concentration of octyl gallate for concomitant use necessary for obtaining oxacillin MIC not higher than 2 μg/mL, C100",[2]; [10],6.25 µg/mL
same,"Concentration of octyl gallate for concomitant use necessary for obtaining oxacillin MIC not higher than 2 μg/mL, Range",[2]; [10],1.56 to 6.25 µg/mL
same,"Concentration of octyl gallate for concomitant use necessary for obtaining oxacillin MIC not higher than 2 μg/mL, C50",[2]; [11],25 µg/mL
same,"Concentration of octyl gallate for concomitant use necessary for obtaining oxacillin MIC not higher than 2 μg/mL, C100",[2]; [11],25 µg/mL
same,"Concentration of octyl gallate for concomitant use necessary for obtaining oxacillin MIC not higher than 2 μg/mL, Range",[2]; [11],25 µg/mL
same,octyl gallate concentration at which a decrease of the MIC value of oxacillin to MRSA occurs,[2]; in the coexistence of propyl gallate or isoamyl gallate,1.56 µg/mL
same,"Concentration of octyl gallate for concomitant use for oxacillin MIC of 2 μg/mL or lower, 100% of MRSA strains (C100)",[2]; isoamyl gallate coexisting at 25 μg/mL,1.56 µg/mL
same,"Concentration of octyl gallate for concomitant use for oxacillin MIC of 2 μg/mL or lower, 100% of MRSA strains (C100)",[2]; propyl gallate coexisting at 25 μg/mL,6.25 µg/mL
same,octyl gallate concentration at which an ILSMR effect was confirmed,"[2]; several bacterial strains, oxacillin with octyl gallate",12.5 µg/mL
same,time required for killing viruses,"[3]; concomitant use of octyl gallate and propyl gallate, FIG. 6",shortened to a large extent
same,virucidal activity of octyl gallate alone,"[3]; influenza virus B/T/1/05, FIG. 7",has a virucidal activity
same,time until the infectivity to cells is lost,"[3]; octyl gallate 30 mg/L and propyl gallate 300 mg/L, 37° C., FIG. 12",≤ 1 min
same,Recrystalized octyl gallate MIC,"[4]; MHA (+0.9% disodium hydrogen citrate), DDW",0.625 µg/mL and 1.25 µg/mL
same,Recrystalized octyl gallate MIC,"[4]; MHA (+0.9% trisodium citrate), propyl gallate 100 mg/L (with J-1216)",1.25 µg/mL
same,Recrystalized octyl gallate MIC,"[4]; MHA (+0.9% trisodium citrate), propyl gallate 200 mg/L (with J-1216)",0.625 µg/mL and 1.25 µg/mL
same,octyl gallate concentration at which all strains were killed,"[4]; MRSA (21 strains) and MSSA (8 strains), concomitant propyl gallate 50 mg/L, disodium hydrogen citrate",1.25 mg/L
same,MIC50,[4]; J-1216 600 mg/L,20 µg/mL
same,MIC50,[4]; propyl gallate 75 mg/L,10 µg/mL
same,MIC50,[4]; propyl gallate 100 mg/L,2.5 µg/mL
same,MIC50,[4]; propyl gallate 200 mg/L,2.5 µg/mL
same,MIC,"[4]; read-out: MIC100, 24 h MIC, MRSA, disodium hydrogen citrate medium, DDW",2.5 µg/mL
same,MIC,"[4]; read-out: MIC100, 24 h MIC, MRSA, disodium hydrogen citrate medium, propyl gallate 50 mg/L",1.25 µg/mL
same,MIC,"[4]; read-out: MIC100, 24 h MIC, MRSA, trisodium citrate medium, J-1216 600 mg/L",50 µg/mL
